Measurements as given in a compilation of properties of binary mixtures (doi:10.1016/j.molliq.2016.01.085).

Assay: xn = mol fraction of the nth substance listed
Settings: 101 kPa

CCCOCCO + CCCC[n+]1ccn(C)c1.F[P-](F)(F)(F)(F)F
speed of sound [m/s]
Settings | x1 = 0.1468 | x1 = 0.1945 | x1 = 0.3063 | x1 = 0.3953 | x1 = 0.5119 | x1 = 0.6168 | x1 = 0.702 | x1 = 0.8043 | x1 = 0.8873 | x1 = 1
298.15 K | 1431.8 | 1427.1 | 1414 | – | 1384.2 | 1366.5 | – | 1331.5 | 1316.4 | –
303.15 K | 1419 | 1414 | – | 1387.9 | 1369.3 | 1351 | 1334.9 | – | 1299.9 | 1283.7
308.15 K | 1406.6 | – | 1387.1 | 1374.1 | 1354.7 | 1335.6 | 1319.1 | – | 1283.5 | 1266.4
313.15 K | 1394.5 | 1389.3 | 1374.4 | 1360.8 | 1340.3 | 1320.3 | – | 1283.2 | 1267.2 | 1249.2
318.15 K | 1382.8 | 1377.1 | 1361.6 | 1347.3 | – | – | 1288.1 | 1267.3 | 1250.9 | 1231.9
323.15 K | – | 1365.3 | 1349.2 | 1334.2 | 1312 | – | 1272.7 | 1251.5 | 1234.9 | 1215

CCCC[n+]1ccn(C)c1.F[P-](F)(F)(F)(F)F + CCCOCCO
x2 = 0
Settings | speed of sound [m/s]
298.15 K | 1443.8
308.15 K | 1419.8
323.15 K | 1385.6
